US20220333108A1, “COMBINATIONS OF SIRNAS WITH SIRNAS AGAINST SULF2 OR GPC3 FOR USE IN TREATING CANCER” (Sirnaomics, Inc., priority 2021, published 2022)

Test system: HepG2 cells
Assay: Sulf2 silencing and Sorafenib in liver cancer cell model
Format: cell-based
Conditions: Homo sapiens, Sorafenib exposure 72 h, read-out: IC50 in inhibiting tumor growth (Sorafenib)
Method: The effect of Sulf2 silencing in combination with Sorafenib in a liver cancer cell model (HepG2 cells) was studied. HepG2 cells incubated with various concentrations of SULF2_1 siRNA for 96 h, and Sorafenib (404) was added after 24 h to allow exposure for 72 h.

**Q.** For `CNC(=O)c1cc(Oc2ccc(NC(=O)Nc3ccc(Cl)c(C(F)(F)F)c3)cc2)ccn1` [Sorafenib, sorafenib], which IC50 is on record?
**A.** ~4 µM
